Converted amounts (≈) assume the structure as drawn.
Columns and labels:
[1] = test system: S. aureus MRSA clinical isolate; experiment: Antibacterial MIC, broth microdilution (EUCAST); assay type: cell-based, Staphylococcus aureus; details: Staphylococcus aureus, MRSA; 24 h, Mueller-Hinton broth
Protocol: (§1) Minimum inhibitory concentrations (MICs) of compounds was determined by the broth microdilution assay in 96-well plates (Eppendorf, Hamburg, Germany) according to the EUCAST rules for antimicrobial susceptibility testing in full Mueller-Hinton broth (MH). The concentrations of compounds to be tested ranged from 1 to 2048 µg/mL. The MIC was determined as the lowest concentration of an antibiotic for which no visible bacterial growth could be observed after 24 h of incubation.

[2] = test system: S. aureus ATCC 29213 (MSSA); experiment: Antibacterial MIC, broth microdilution (EUCAST); assay type: cell-based, Staphylococcus aureus; details: 24 h, Mueller-Hinton broth; for MIC: Staphylococcus aureus
Protocol: as §1

[3] = test system: P. aeruginosa ATCC 27853; experiment: Antibacterial MIC, broth microdilution (EUCAST); assay type: cell-based, Pseudomonas aeruginosa; details: for MIC: Pseudomonas aeruginosa, ATCC27853, 24 h, Mueller-Hinton broth
Protocol: as §1

[4] = test system: Candida albicans 703 clinical isolate; experiment: Antifungal MIC, broth microdilution (CLSI M27-A3); details: for MIC: Candida albicans, 24 h, read-out: MIC C. albicans 703 Clinical Isolate
[5] = in vitro; details: dog
[6] = Cytotoxicity, MTT on EBL cells; details: bovine, EBL cells (embryonic bovine lung)
Protocol: Cytotoxicity of compounds was determined using the microtetrazolium test (MTT) on EBL cells. The cells were cultured in DMEM—Dulbecco’s Modified Eagle’s Medium (Sigma Aldrich, St. Louis, MO, USA) supplemented with 10% FBS, 2 mM L-glutamine, 100 µg/mL penicillin and 100 µg/mL streptomycin. Cells were seeded in 96-well plates with the density of 3000 cells per well and left overnight to allow for the attachment. Cells were next cultured at 37 °C and 5% CO2 in the presence of compounds of interest at various concentrations from 1.25 to 160 µg/mL. After 24 h of cultivation the cells were subjected to MTT-assay. The formazan was solubilized by DMSO and the optical density was measured on Tecan Infinite 200Pro at 570 nm. The concentration required to inhibit cellular dehydrogenase activity by 50% (CC50 value) was calculated by using GraphPad Prism 6.0 software (GraphPad software, San Diego, CA, USA).

[7] = test system: red blood cells from laboratory mice; experiment: Membrane-protective activity: H2O2-induced hemolysis of erythrocytes; assay type: cell-based; details: 1 μM, 1–5 h
Protocol: The membrane-protective properties of the compounds were evaluated in the model of oxidative hemolysis of erythrocytes at a concentration of 1 μM in order to avoid the effect of hemolytic activity.
To evaluate the erythrotoxicity, antioxidant and membrane-protective activity of the compounds, we used 0.5% (v/v) suspension of red blood cells from laboratory mice in phosphate-buffered saline (PBS, pH 7.4). The test substances were previously dissolved in ethanol. Erythrotoxicity (hemolytic activity) was evaluated by the degree of hemolysis of red blood cells 1–5 h after the introduction of solutions of the compounds. Membrane-protective and antioxidant activity was determined by the degree of inhibition of H2O2-induced hemolysis. For this purpose, 30 min after the erythrocyte suspension was added to the solutions of the test compounds, hemolysis was initiated with a solution of hydrogen peroxide (0.006%). Then, the reaction mixture was incubated in a thermostatic shaker Biosan ES-20 with slow stirring at 37 °C for 5 h. An aliquot was taken from the incubation medium every hour, centrifuged for 5 min (1600× g), and the degree of hemolysis was determined by the hemoglobin content in the supernatant on a ThermoSpectromic Genesys 20 spectrophotometer (Thermo Fisher Scientific, Waltham, MA, USA) at 524 nm. The percentage of hemolysis was calculated in relation to the complete hemolysis of the sample. Each experiment was designed with 4–8 replicates. Statistical data processing and charting were performed using the Microsoft Office Excel 2007 software package (Microsoft, Redmond, WA, USA). The data represent the mean ± SE.
Figure 4 Effect of unsymmetrical disulfides and Trolox (T) at a concentration of 1 μM on the level of H2O2-induced hemolysis of erythrocytes after 1–5 h of incubation.

[8] = test system: influenza virus A/Puerto Rico/8/34 (H1N1); experiment: Antiviral cell protection assay in MDCK cells; assay type: cell-based; details: H1N1, MDCK, 72 h

Structure (SMILES): NCC[C@H](O)C(=O)N[C@@H]1C[C@H](N)[C@@H](O[C@H]2O[C@H](CN)[C@@H](O)[C@H](O)[C@H]2O)[C@H](O)[C@H]1O[C@H]1O[C@H](CO)[C@@H](O)[C@H](N)[C@H]1O [Amikacin, reference compound]
- MIC [1]: 4 µg/mL (≈ 6.83 µM)
- MIC [2]: 4 µg/mL (≈ 6.83 µM)
- MIC [3]: 4 µg/mL (≈ 6.83 µM)

Structure (SMILES): Cc1cc(C)nc(SS[C@H]2C[C@H]3C[C@@H]([C@@H]2CO)C3(C)C)n1 [Compound 3b, ((1S,2R,3S,5R)-3-((4,6-dimethylpyrimidin-2-yl)disulfanyl)-6,6-dimethylbicyclo[3.1.1]heptan-2-yl)methanol]
- MIC [4]: 512 µg/mL (≈ 1580 µM)
- CC50 [5]: 83 ± 4 µM
- MIC [1]: 32 µg/mL (≈ 98.6 µM)
- MIC [2]: 32 µg/mL (≈ 98.6 µM)
- CC50 at 24 h [6]: 8.2 µg/mL (≈ 25.3 µM)
- MIC [3]: 1020 µg/mL (≈ 3160 µM)
- membrane-protective activity, in words [7]: most active
- IC50 [8]: 16 ± 3 µM

Structure (SMILES): CC(N)C12CC3CC(CC(C3)C1)C2 (centres unmarked) [Rimantadine, reference compound]
- CC50 [5]: 367 ± 28 µM
- IC50 [8]: 57 ± 8 µM

Structure (SMILES): CC1(C)[C@H]2CC[C@@H](CSSc3ncccc3C(=O)O)[C@@H]1C2 [Compound 2d, 2-((((1S,2R,5S)-6,6-dimethylbicyclo[3.1.1]heptan-2-yl)methyl)disulfanyl)nicotinic acid]
- MIC [4]: 128 µg/mL (≈ 396 µM)
- CC50 [5]: 60 ± 4 µM
- MIC [1]: 512 µg/mL (≈ 1580 µM)
- MIC S. aureus ATCC 29213 (MSSA) [2]: 32 µg/mL (≈ 98.9 µM)
- MIC [2]: 16 µg/mL (≈ 49.5 µM)
- CC50 at 24 h [6]: 18.1 µg/mL (≈ 56 µM)
- MIC [3]: 1020 µg/mL (≈ 3170 µM)
- IC50 [8]: 5 ± 1 µM

Structure (SMILES): CC1(C)[C@H]2C[C@H](O)[C@@H](CSSc3nc4ccccc4s3)[C@@H]1C2 [Compound 4a, (1S,2S,3S,5R)-2-((benzo[d]thiazol-2-yldisulfanyl)methyl)-6,6-dimethylbicyclo[3.1.1]heptan-3-ol]
- MIC [4]: > 1020 µg/mL
- CC50 [5]: 68 ± 6 µM
- MIC [1]: > 1020 µg/mL
- MIC [2]: 256 µg/mL (≈ 728 µM)
- MIC [3]: 1020 µg/mL (≈ 2910 µM)
- membrane-protective activity, in words [7]: most active
- IC50 [8]: > 31 µM

Structure (SMILES): OC(Cn1cncn1)(Cn1cncn1)c1ccc(F)cc1F [Fluconazole, reference compound]
- MIC [4]: 16 µg/mL (≈ 52.2 µM)

Structure (SMILES): CC1(C)[C@H]2C[C@H](O)[C@@H](CSSc3ncccc3C(=O)O)[C@@H]1C2 [Compound 4d, 2-((((1S,2S,3S,5R)-3-hydroxy-6,6-dimethylbicyclo[3.1.1]heptan-2-yl)methyl)disulfanyl)nicotinic acid]
- antifungal activity against Candida albicans 703, in words [4]: active against yeast
- MIC [4]: 16 µg/mL (≈ 47.1 µM)
- CC50 [5]: 178 ± 11 µM
- MIC [1]: 64 µg/mL (≈ 189 µM)
- MIC [2]: 512 µg/mL (≈ 1510 µM)
- CC50 at 24 h [6]: 11.1 µg/mL (≈ 32.8 µM)
- MIC [3]: 1020 µg/mL (≈ 3020 µM)
- membrane-protective activity, in words [7]: most active
- IC50 [8]: > 97 µM

Structure (SMILES): CC1(C)[C@H]2C[C@H](SSc3nc4ccccc4s3)[C@@H](CO)[C@@H]1C2 [Compound 3a, ((1S,2R,3S,5R)-3-(benzo[d]thiazol-2-yldisulfanyl)-6,6-dimethylbicyclo[3.1.1]heptan-2-yl)methanol]
- MIC [4]: 1020 µg/mL (≈ 2910 µM)
- CC50 [5]: 30 ± 3 µM
- MIC [1]: 32 µg/mL (≈ 91 µM)
- MIC [2]: 32 µg/mL (≈ 91 µM)
- CC50 at 24 h [6]: 7.1 µg/mL (≈ 20.2 µM)
- activity against P. aeruginosa ATCC 27853, in words [3]: repressed the growth
- MIC [3]: 64 µg/mL (≈ 182 µM)
- IC50 [8]: 9 ± 3 µM

Structure (SMILES): Cc1cc(C)nc(SSC[C@@H]2CC[C@H]3C[C@@H]2C3(C)C)n1 [Compound 2b, 2-((((1S,2R,5S)-6,6-dimethylbicyclo[3.1.1]heptan-2-yl)methyl)disulfanyl)-4,6-dimethylpyrimidine]
- MIC [4]: > 1020 µg/mL
- CC50 [5]: 35 ± 3 µM
- MIC [1]: 64 µg/mL (≈ 207 µM)
- MIC [2]: 16 µg/mL (≈ 51.9 µM)
- CC50 at 24 h [6]: 13.6 µg/mL (≈ 44.1 µM)
- activity against P. aeruginosa ATCC 27853, in words [3]: repressed the growth
- MIC [3]: 32 µg/mL (≈ 104 µM)
- membrane-protective activity, in words [7]: most active
- IC50 [8]: 13 ± 2 µM

Structure (SMILES): Cc1cc(C)nc(SSC[C@@H]2[C@@H](O)C[C@H]3C[C@@H]2C3(C)C)n1 [Compound 4b, (1S,2S,3S,5R)-2-(((4,6-dimethylpyrimidin-2-yl)disulfanyl)methyl)-6,6-dimethylbicyclo[3.1.1]heptan-3-ol]
- MIC [4]: > 1020 µg/mL
- CC50 [5]: 34 ± 2 µM
- MIC [1]: > 1020 µg/mL
- MIC [2]: > 1020 µg/mL
- MIC [3]: > 1020 µg/mL
- membrane-protective activity, in words [7]: most active
- IC50 [8]: 12 ± 3 µM

Source: paper PMC9416111, “Synthesis and Biological Activity of Unsymmetrical Monoterpenylhetaryl Disulfides” (Molecules, 2022)
